Experiments:
[1] = background statement; cited from earlier work
[2] = UV-Vis absorbance ratio of sterol-PEG/AmB (affinity comparison); assay type: binding; details: for affinity ordering of sterol-PEG to AmB / variation of the UV-Vis absorbance ratios A415nm/A350nm: FIG. 2; for variation of the UV-Vis absorbance ratios A415nm/A350nm: for any mixing molar ratios with AmB
Method: (1) Adding 23.1 mg AmB aqueous solution to 5 ml dimethyl sulfoxide (DMSO), and then adding in 495 ml ionized water to prepare a mixture. Taking 10 ml volume out of the mixture, and diluting the 10 ml volume with 30 ml 1% dimethyl sulfoxide (DMSO) aqueous solution to prepare 12.5 μM AmB aqueous solution. (2) Adding 13 g n-propanol to 187 ml ionized water to prepare 6.5% n-propanol aqueous solution. (3) Adding 24.4 mg cholesterol-PEG600 to 6.5 g n-propanol, shaking them to completely dissolve cholesterol-PEG600 in n-propanol, and then adding in 93.5 g ionized water to prepare 250 μM cholesterol-PEG600 aqueous solution. (4) Adding […] stigmasterol-PEG600 to 6.5 g n-propanol, shaking them to completely dissolve stigmasterol-PEG600 in n-propanol, and then adding in 93.5 g ionized water to prepare 250 μM stigmasterol-PEG600 aqueous solution. (5) Adding 24.6 mg ergosterol-PEG600 to 6.5 g n-propanol, shaking them to completely dissolve ergosterol-PEG600 in n-propanol, and then adding in 93.5 g ionized water to prepare 250 μM ergosterol-PEG600 aqueous solution. (6) Mixing 10 ml 12.5 μM AmB and 10 ml 250 μM cholesterol-PEG600, the molar ratio of AmB/cholesterol-PEG600 is 1/20. The UV-Vis absorbance ratio A415nm/A350nm of AmB/cholesterol is 0.40 (scanning from 300 nm to 450 nm). (7) Mixing 10 ml 12.5 μM AmB, 5 ml 6.5% n-propanol and 5 ml 250 μM cholesterol-PEG600. The molar ratio of AmB/cholesterol-PEG600 is 1/10. The UV-Vis absorbance ratio of A415nm/A350nm of AmB/cholesterol-PEG600 is 0.44. (8) Mixing 10 ml 12.5 μM AmB, 7.5 ml 6.5% n-propanol and 2.5 ml 250 μM cholesterol-PEG600. The molar ratio of AmB/cholesterol-PEG600 is 1/5. The UV-Vis absorbance ratio of A415nm/A350nm of AmB/cholesterol-PEG600 is 0.48. (9) Mixing 10 ml 12.5 μM AmB, 9.5 ml 6.5% n-propanol and 0.5 ml 250 μM cholesterol-PEG600. The molar ratio of AmB/cholesterol-PEG600 is 1/1. The UV-Vis absorbance ratio of A415nm/A350nm of AmB/cholesterol-PEG600 is 0.48. (10) Measuring absorbance ratio of stigmasterol-PEG600/AmB and ergosterol-PEG600/AmB by the procedures with the same, the result is shown in FIG. 2.
(§1) Using UV-Vis spectroscopy to measure UV-Vis absorbance ratios of cholesterol-PEG600, stigmasterol-PEG600 and ergosterol-PEG600 prepared in Example I to AmB and UV-Vis absorbance ratios of cholesterol, stigmasterol and ergosterol to AmB. The results are as shown in FIG. 1 and FIG. 2, in which FIG. 1 is a curve diagram of A415nm/A350nm vs. sterol/AmB and FIG. 2 is a curve diagram of A415nm/A350nm vs. sterol-PEG600/AmB.

[3] = UV-Vis absorbance ratio of sterol/AmB (affinity comparison); assay type: binding; details: for affinity ordering of these three sterols to AmB: FIG. 1, molar ratios from 1:1 to 20:1
Method: (1) Adding 23.1 mg Amphotericin B (AmB) to 5 ml dimethyl sulfoxide (DMSO), and then adding in 495 ml ionized water to prepare a mixture, and taking 10 ml volume out of the mixture; diluting the 10 volume with 30 ml 1% dimethyl sulfoxide (DMSO) solution to prepare 12.5 μM Amphotericin B (AmB) aqueous solution. (2) Adding 13 g n-propanol to 187 ml ionized water to prepare 6.5% n-propanol aqueous solution. (3) Adding 28.9 mg cholesterol to 19.5 g n-propanol, shaking them to completely dissolve cholesterol in n-propanol, and then adding in 280.5 gram ionized water to prepare 250 μM cholesterol aqueous solution. (4) Adding […] stigmasterol to 19.5 g n-propanol, shaking them to completely dissolve stigmasterol in n-propanol, and then adding in 280.5 gram ionized water to prepare 250 μM stigmasterol aqueous solution. (5) Adding 29.7 mg ergosterol to 19.5 g n-propanol, shaking them to completely dissolve ergosterol in n-propanol, and then adding in 280.5 gram ionized water to prepare 250 μM ergosterol aqueous solution. (6) Mixing 10 ml 12.5 μM AmB aqueous solution with 10 ml 250 μM cholesterol aqueous solution. The molar ratio of AmB/cholesterol is 1/20. The UV-Vis absorbance ratio A415nm/A350nm of AmB/cholesterol is 0.61 (scanning from 300 nm to 450 nm). (7) Mixing 10 ml 12.5 μM AmB aqueous solution, 5 ml 6.5% n-propanol aqueous solution and 5 ml 250 μM cholesterol aqueous solution. The molar ratio of AmB/cholesterol is 1/10. The UV-Vis absorbance ratio A415nm/A350nm of AmB/cholesterol is 0.59. (8) Mixing 10 ml 12.5 μM AmB aqueous solution, 7.5 ml 6.5% n-propanol aqueous solution and 2.5 ml 250 μM cholesterol aqueous solution. The molar ratio of AmB/cholesterol is 1/5. The UV-Vis absorbance ratio A415nm/A350nm of AmB/cholesterol is 0.60. (9) Mixing 10 ml 12.5 μM AmB aqueous solution, 9.5 ml 6.5% n-propanol aqueous solution and 0.5 ml 250 μM cholesterol aqueous solution. The molar ratio of AmB/cholesterol is 1/1. The UV-Vis absorbance ratio A415nm/A350nm of AmB/cholesterol is 0.49. (10) Measuring absorbance ratio of stigmasterol/AmB and ergosterol/AmB by the procedures with the same, the result is shown in FIG. 1.
as §1

| Compound | affinity ordering of these three sterols to AmB [3] | affinity ordering of sterol-PEG to AmB [2] | variation of the UV-Vis absorbance ratios A415nm/A350nm [2] | other results |
| --- | --- | --- | --- | --- |
| C[C@@H]1[C@H](O)[C@@H](C)/C=C/C=C/C=C/C=C/C=C/C=C/C=C/[C@H](O[C@@H]2O[C@H](C)[C@@H](O)[C@H](N)[C@@H]2O)C[C@@H]2O[C@](O)(C[C@@H](O)C[C@@H](O)[C@H](O)CC[C@@H](O)C[C@@H](O)CC(=O)O[C@H]1C)C[C@H](O)[C@H]2C(=O)O [Amphotericin B] | – | – | – | affinity for ergosterol of fungal cells compared with that for cholesterols of mammal [1]: ten times better |
| CC(C)CCC[C@@H](C)[C@H]1CC[C@H]2[C@@H]3CC=C4C[C@@H](O)CC[C@]4(C)[C@H]3CC[C@]12C [cholesterol] | cholesterol<stigmasterol<ergosterol | – | – | UV-Vis absorbance ratio A415nm/A350nm ([2]; molar ratio of AmB/cholesterol-PEG600 1/20, scanning from 300 nm to 450 nm): 0.40; UV-Vis absorbance ratio A415nm/A350nm ([3]; molar ratio of AmB/cholesterol 1/1): 0.49; UV-Vis absorbance ratio A415nm/A350nm ([3]; molar ratio of AmB/cholesterol 1/5): 0.60; UV-Vis absorbance ratio A415nm/A350nm ([3]; molar ratio of AmB/cholesterol 1/10): 0.59; UV-Vis absorbance ratio A415nm/A350nm ([3]; molar ratio of AmB/cholesterol 1/20, scanning from 300 nm to 450 nm): 0.61 |
| CC(C)[C@@H](C)/C=C/[C@@H](C)[C@H]1CC[C@H]2C3=CC=C4C[C@@H](O)CC[C@]4(C)[C@H]3CC[C@]12C [ergosterol] | cholesterol<stigmasterol<ergosterol | – | – | – |
| CC[C@H](/C=C/[C@@H](C)[C@H]1CC[C@H]2[C@@H]3CC=C4C[C@@H](O)CC[C@]4(C)[C@H]3CC[C@]12C)C(C)C [stigmasterol] | cholesterol<stigmasterol<ergosterol | – | – | – |
| cholesterol-PEG600 | – | ergosterol-PEG600>stigmasterol-PEG600>cholesterol-PEG600 | insignificant | UV-Vis absorbance ratio A415nm/A350nm ([2]; molar ratio of AmB/cholesterol-PEG600 1/1): 0.48; UV-Vis absorbance ratio A415nm/A350nm ([2]; molar ratio of AmB/cholesterol-PEG600 1/5): 0.48; UV-Vis absorbance ratio A415nm/A350nm ([2]; molar ratio of AmB/cholesterol-PEG600 1/10): 0.44 |
| ergosterol-PEG600 | – | ergosterol-PEG600>stigmasterol-PEG600>cholesterol-PEG600 | insignificant | – |
| stigmasterol-PEG600 | – | ergosterol-PEG600>stigmasterol-PEG600>cholesterol-PEG600 | insignificant | – |

From US20090220599A1, “Antifungal formulation and manufacturing method thereof” (Industrial Technology Research Institute, priority 2003, published 2009)
